Experimental data published in the supplement of paper PMC10307832.

Tests used:
Assay in all cases: relative viability (nuclei count vs DMSO), 5 days (fraction); higher = more cells survive
NCI-H358 = tested on: NCI-H358
Outline: (§1)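 Relative viability was taken as the ratio of nuclei in treated wells to nuclei in vehicle wells. Lung cancer cell lines in 1536-well plates received compounds by pin tool one day after seeding, either one drug alone or a fixed anchor-drug dose plus five library-drug doses (not always all listed) in √10 steps. Nuclei were counted on 4× images after 5 days of treatment, and values are medians of duplicate plates.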

NCI-H838 = tested on: NCI-H838
Outline: as §1

COR-L23 = tested on: COR-L23
Outline: as §1

NCI-H2126 = tested on: NCI-H2126
Outline: as §1

LC-2-ad = tested on: LC-2-ad
Outline: as §1

NCI-H1793 = tested on: NCI-H1793
Outline: as §1

HARA = tested on: HARA
Outline: as §1

NCI-H1993 = tested on: NCI-H1993
Outline: as §1

NCI-H1395 = tested on: NCI-H1395
Outline: as §1

SK-LU-1 = tested on: SK-LU-1
Outline: as §1

HCC-15 = tested on: HCC-15
Outline: as §1

NCI-H1944 = tested on: NCI-H1944
Outline: as §1

NCI-H2228 = tested on: NCI-H2228
Outline: as §1

NCI-H23 = tested on: NCI-H23
Outline: as §1

NCI-H2023 = tested on: NCI-H2023
Outline: as §1

ABC-1 = tested on: ABC-1
Outline: as §1

HCC-366 = tested on: HCC-366
Outline: as §1

NCI-H2405 = tested on: NCI-H2405
Outline: as §1

HOP-62 = tested on: HOP-62
Outline: as §1

HCC-78 = tested on: HCC-78
Outline: as §1

EMC-BAC-2 = tested on: EMC-BAC-2
Outline: as §1

## CC(=O)O[C@@]12CO[C@@H]1C[C@H](O)[C@@]1(C)C(=O)[C@H](O)C3=C(C)[C@@H](OC(=O)[C@H](O)[C@@H](NC(=O)OC(C)(C)C)c4ccccc4)C[C@@](O)([C@@H](OC(=O)c4ccccc4)[C@H]21)C3(C)C [Docetaxel] + C[C@]1(O)C[C@@H](c2nc(-c3ccc4ccc(-c5ccccc5)nc4c3)c3c(N)nccn32)C1 [Linsitinib] (partner 1 µM)
NCI-H358; first compound 0.0002 µM
  relative viability: 0.63
NCI-H358; first compound 0.000632 µM
  relative viability: 0.371
NCI-H358; first compound 0.002 µM
  relative viability: 0.206
NCI-H358; first compound 0.02 µM
  relative viability: 0.136
NCI-H838; first compound 0.0002 µM
  relative viability: 0.98
NCI-H838; first compound 0.000632 µM
  relative viability: 1.1
NCI-H838; first compound 0.002 µM
  relative viability: 0.247
NCI-H838; first compound 0.006325 µM
  relative viability: 0.166
NCI-H838; first compound 0.02 µM
  relative viability: 0.145
COR-L23; first compound 0.0002 µM
  relative viability: 0.813
COR-L23; first compound 0.000632 µM
  relative viability: 0.722
COR-L23; first compound 0.002 µM
  relative viability: 0.259
COR-L23; first compound 0.006325 µM
  relative viability: 0.101
COR-L23; first compound 0.02 µM
  relative viability: 0.0798
NCI-H2126; first compound 0.0002 µM
  relative viability: 0.747
NCI-H2126; first compound 0.000632 µM
  relative viability: 0.683
NCI-H2126; first compound 0.002 µM
  relative viability: 0.631
NCI-H2126; first compound 0.006325 µM
  relative viability: 0.402
NCI-H2126; first compound 0.02 µM
  relative viability: 0.291
LC-2-ad; first compound 0.0002 µM
  relative viability: 0.714
LC-2-ad; first compound 0.000632 µM
  relative viability: 0.223
LC-2-ad; first compound 0.002 µM
  relative viability: 0.185
LC-2-ad; first compound 0.006325 µM
  relative viability: 0.159
LC-2-ad; first compound 0.02 µM
  relative viability: 0.112
NCI-H1793; first compound 0.0002 µM
  relative viability: 1.01
NCI-H1793; first compound 0.000632 µM
  relative viability: 0.939
NCI-H1793; first compound 0.002 µM
  relative viability: 0.666
NCI-H1793; first compound 0.006325 µM
  relative viability: 0.352
NCI-H1793; first compound 0.02 µM
  relative viability: 0.218
HARA; first compound 0.0002 µM
  relative viability: 0.739
HARA; first compound 0.000632 µM
  relative viability: 0.482
HARA; first compound 0.002 µM
  relative viability: 0.235
HARA; first compound 0.006325 µM
  relative viability: 0.0978
HARA; first compound 0.02 µM
  relative viability: 0.0632
NCI-H1993; first compound 0.0002 µM
  relative viability: 0.796
NCI-H1993; first compound 0.000632 µM
  relative viability: 0.739
NCI-H1993; first compound 0.002 µM
  relative viability: 0.807
NCI-H1993; first compound 0.006325 µM
  relative viability: 0.605
NCI-H1993; first compound 0.02 µM
  relative viability: 0.488
NCI-H1395; first compound 0.0002 µM
  relative viability: 1.05
NCI-H1395; first compound 0.000632 µM
  relative viability: 1.19
NCI-H1395; first compound 0.002 µM
  relative viability: 0.787
NCI-H1395; first compound 0.006325 µM
  relative viability: 0.431
NCI-H1395; first compound 0.02 µM
  relative viability: 0.336
SK-LU-1; first compound 0.0002 µM
  relative viability: 0.899
SK-LU-1; first compound 0.000632 µM
  relative viability: 0.437
SK-LU-1; first compound 0.002 µM
  relative viability: 0.406
SK-LU-1; first compound 0.006325 µM
  relative viability: 0.344
SK-LU-1; first compound 0.02 µM
  relative viability: 0.232
HCC-15; first compound 0.0002 µM
  relative viability: 0.765
HCC-15; first compound 0.000632 µM
  relative viability: 0.479
HCC-15; first compound 0.002 µM
  relative viability: 0.227
HCC-15; first compound 0.006325 µM
  relative viability: 0.244
HCC-15; first compound 0.02 µM
  relative viability: 0.162
NCI-H1944; first compound 0.0002 µM
  relative viability: 1.11
NCI-H1944; first compound 0.000632 µM
  relative viability: 1.13
NCI-H1944; first compound 0.002 µM
  relative viability: 1.18
NCI-H1944; first compound 0.006325 µM
  relative viability: 0.349
NCI-H1944; first compound 0.02 µM
  relative viability: 0.208
NCI-H2228; first compound 0.0002 µM
  relative viability: 0.326
NCI-H2228; first compound 0.000632 µM
  relative viability: 0.197
NCI-H2228; first compound 0.002 µM
  relative viability: 0.173
NCI-H2228; first compound 0.006325 µM
  relative viability: 0.155
NCI-H2228; first compound 0.02 µM
  relative viability: 0.129
NCI-H23; first compound 0.0002 µM
  relative viability: 0.579
NCI-H23; first compound 0.000632 µM
  relative viability: 0.572
NCI-H23; first compound 0.002 µM
  relative viability: 0.465
NCI-H23; first compound 0.006325 µM
  relative viability: 0.22
NCI-H23; first compound 0.02 µM
  relative viability: 0.126
NCI-H2023; first compound 0.0002 µM
  relative viability: 0.703
NCI-H2023; first compound 0.000632 µM
  relative viability: 0.72
NCI-H2023; first compound 0.002 µM
  relative viability: 0.144
NCI-H2023; first compound 0.006325 µM
  relative viability: 0.159
NCI-H2023; first compound 0.02 µM
  relative viability: 0.0739
ABC-1; first compound 0.0002 µM
  relative viability: 0.834
ABC-1; first compound 0.000632 µM
  relative viability: 1
ABC-1; first compound 0.002 µM
  relative viability: 0.424
ABC-1; first compound 0.006325 µM
  relative viability: 0.286
ABC-1; first compound 0.02 µM
  relative viability: 0.218
HCC-366; first compound 0.0002 µM
  relative viability: 0.423
HCC-366; first compound 0.000632 µM
  relative viability: 0.545
HCC-366; first compound 0.002 µM
  relative viability: 0.0386
HCC-366; first compound 0.006325 µM
  relative viability: 0.012
HCC-366; first compound 0.02 µM
  relative viability: 0.0114
NCI-H2405; first compound 0.0002 µM
  relative viability: 0.95
NCI-H2405; first compound 0.000632 µM
  relative viability: 0.913
NCI-H2405; first compound 0.002 µM
  relative viability: 0.667
NCI-H2405; first compound 0.006325 µM
  relative viability: 0.438
NCI-H2405; first compound 0.02 µM
  relative viability: 0.316
HOP-62; first compound 0.0002 µM
  relative viability: 1.18
HOP-62; first compound 0.000632 µM
  relative viability: 0.672
HOP-62; first compound 0.02 µM
  relative viability: 0.128
HCC-78; first compound 0.0002 µM
  relative viability: 0.469
HCC-78; first compound 0.000632 µM
  relative viability: 0.429
HCC-78; first compound 0.002 µM
  relative viability: 0.339
HCC-78; first compound 0.006325 µM
  relative viability: 0.284
HCC-78; first compound 0.02 µM
  relative viability: 0.222
EMC-BAC-2; first compound 0.0002 µM
  relative viability: 0.799
EMC-BAC-2; first compound 0.000632 µM
  relative viability: 0.665
EMC-BAC-2; first compound 0.002 µM
  relative viability: 0.463
EMC-BAC-2; first compound 0.006325 µM
  relative viability: 0.31
EMC-BAC-2; first compound 0.02 µM
  relative viability: 0.207
